# Assay results from PubChem BioAssay (NCI).
#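 Values below derive from 48-hour exposures of cells grown in 96-well plates, with endpoints linearly interpolated between the two concentrations bracketing the appropriate inhibition level. Here, GI50 denotes the concentration required for 50% inhibition of growth. TGI denotes the concentration required for complete inhibition of growth.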
# Tests used:
# Experiment in all cases: inhibition of tumour cell growth, NCI panel, 48 h
# M19-MEL melanoma = test system: M19-MEL melanoma
# MALME-3M melanoma = test system: MALME-3M melanoma
# HCT-116 colon = test system: HCT-116 colon
# SNB-75 CNS = test system: SNB-75 CNS
# HCC-2998 colon = test system: HCC-2998 colon
# OVCAR-4 ovarian = test system: OVCAR-4 ovarian
# OVCAR-3 ovarian = test system: OVCAR-3 ovarian
# 786-0 renal = test system: 786-0 renal
# SF-268 CNS = test system: SF-268 CNS
# SW-620 colon = test system: SW-620 colon
# OVCAR-8 ovarian = test system: OVCAR-8 ovarian
# HOP-92 NSCLC = test system: HOP-92 NSCLC
# HOP-62 NSCLC = test system: HOP-62 NSCLC
# SK-MEL-5 melanoma = test system: SK-MEL-5 melanoma
# LXFL 529 NSCLC = test system: LXFL 529 NSCLC
# SK-OV-3 ovarian = test system: SK-OV-3 ovarian
# IGROV1 ovarian = test system: IGROV1 ovarian
# SK-MEL-28 melanoma = test system: SK-MEL-28 melanoma
# EKVX NSCLC = test system: EKVX NSCLC
# NCI-H23 lung = test system: NCI-H23 lung
# NCI-H522 lung = test system: NCI-H522 lung
# UACC-257 melanoma = test system: UACC-257 melanoma
# HL-60(TB) leukemia = test system: HL-60(TB) leukemia
# SF-295 CNS = test system: SF-295 CNS
# HOP-18 NSCLC = test system: HOP-18 NSCLC
# UACC-62 melanoma = test system: UACC-62 melanoma
# A498 renal = test system: A498 renal
# SN12C renal = test system: SN12C renal
# DLD-1 colon = test system: DLD-1 colon
# LOX IMVI melanoma = test system: LOX IMVI melanoma
# NCI-H226 lung = test system: NCI-H226 lung
# CAKI-1 renal = test system: CAKI-1 renal
# U251 CNS = test system: U251 CNS
# TK-10 renal = test system: TK-10 renal
# DMS 273 small cell lung = test system: DMS 273 small cell lung
# RPMI-8226 leukemia = test system: RPMI-8226 leukemia
# A549 NSCLC = test system: A549 NSCLC
# HT29 colon = test system: HT29 colon
# SK-MEL-2 melanoma = test system: SK-MEL-2 melanoma
# SNB-19 CNS = test system: SNB-19 CNS
# CCRF-CEM leukemia = test system: CCRF-CEM leukemia
# SR leukemia = test system: SR leukemia
# M14 melanoma = test system: M14 melanoma
# ACHN renal = test system: ACHN renal
# OVCAR-5 ovarian = test system: OVCAR-5 ovarian
# KM20L2 colon = test system: KM20L2 colon
# HCT-15 colon = test system: HCT-15 colon
# NCI-H460 lung = test system: NCI-H460 lung
# KM12 colon = test system: KM12 colon
# MOLT-4 leukemia = test system: MOLT-4 leukemia
# UO-31 renal = test system: UO-31 renal
# COLO 205 colon = test system: COLO 205 colon
# K-562 leukemia = test system: K-562 leukemia
# RXF 393 renal = test system: RXF 393 renal
# SF-539 CNS = test system: SF-539 CNS
smiles,measurement,setting,value
[O-]c1ccccc1C=NCCN=Cc1ccccc1[O-].[O]=[U+2]=[O],GI50,M19-MEL melanoma,32.2 µM
same,TGI,M19-MEL melanoma,> 66.3 µM
same,GI50,MALME-3M melanoma,39.7 µM
same,TGI,MALME-3M melanoma,> 63.5 µM
same,GI50,HCT-116 colon,46.2 µM
same,TGI,HCT-116 colon,> 100 µM
same,GI50,SNB-75 CNS,22.9 µM
same,TGI,SNB-75 CNS,70.2 µM
same,GI50,HCC-2998 colon,27.9 µM
same,TGI,HCC-2998 colon,83.6 µM
same,GI50,OVCAR-4 ovarian,19 µM
same,TGI,OVCAR-4 ovarian,64.1 µM
same,GI50,OVCAR-3 ovarian,24.5 µM
same,TGI,OVCAR-3 ovarian,95.3 µM
same,GI50,786-0 renal,18.6 µM
same,TGI,786-0 renal,39.2 µM
same,GI50,SF-268 CNS,25.1 µM
same,TGI,SF-268 CNS,66.5 µM
same,GI50,SW-620 colon,> 100 µM
same,TGI,SW-620 colon,> 100 µM
same,GI50,OVCAR-8 ovarian,31.2 µM
same,TGI,OVCAR-8 ovarian,> 94.6 µM
same,GI50,HOP-92 NSCLC,22.6 µM
same,TGI,HOP-92 NSCLC,48.3 µM
same,GI50,HOP-62 NSCLC,> 43.3 µM
same,TGI,HOP-62 NSCLC,> 67 µM
same,GI50,SK-MEL-5 melanoma,41.7 µM
same,TGI,SK-MEL-5 melanoma,> 81.8 µM
same,GI50,LXFL 529 NSCLC,17.8 µM
same,TGI,LXFL 529 NSCLC,53.3 µM
same,GI50,SK-OV-3 ovarian,24.3 µM
same,TGI,SK-OV-3 ovarian,57 µM
same,GI50,IGROV1 ovarian,26.1 µM
same,TGI,IGROV1 ovarian,61.6 µM
same,GI50,SK-MEL-28 melanoma,> 50.9 µM
same,TGI,SK-MEL-28 melanoma,> 78.7 µM
same,GI50,EKVX NSCLC,61.5 µM
same,TGI,EKVX NSCLC,> 100 µM
same,GI50,NCI-H23 lung,22.6 µM
same,TGI,NCI-H23 lung,61.1 µM
same,GI50,NCI-H522 lung,> 53.4 µM
same,TGI,NCI-H522 lung,> 75.2 µM
same,GI50,UACC-257 melanoma,34.5 µM
same,TGI,UACC-257 melanoma,> 78.1 µM
same,GI50,HL-60(TB) leukemia,> 48.4 µM
same,TGI,HL-60(TB) leukemia,> 84.5 µM
same,GI50,SF-295 CNS,28.7 µM
same,TGI,SF-295 CNS,> 72.3 µM
same,GI50,HOP-18 NSCLC,31.2 µM
same,TGI,HOP-18 NSCLC,> 77.1 µM
same,GI50,UACC-62 melanoma,37.4 µM
same,TGI,UACC-62 melanoma,> 74.3 µM
same,GI50,A498 renal,> 45.6 µM
same,TGI,A498 renal,> 64.8 µM
same,GI50,SN12C renal,28.4 µM
same,TGI,SN12C renal,> 63.4 µM
same,GI50,DLD-1 colon,27 µM
same,TGI,DLD-1 colon,> 100 µM
same,GI50,LOX IMVI melanoma,22.2 µM
same,TGI,LOX IMVI melanoma,> 100 µM
same,GI50,NCI-H226 lung,> 42.5 µM
same,TGI,NCI-H226 lung,> 63.6 µM
same,GI50,CAKI-1 renal,> 46.7 µM
same,TGI,CAKI-1 renal,> 67.6 µM
same,GI50,U251 CNS,19.3 µM
same,TGI,U251 CNS,39.1 µM
same,GI50,TK-10 renal,26.3 µM
same,TGI,TK-10 renal,53.1 µM
same,GI50,DMS 273 small cell lung,32.5 µM
same,TGI,DMS 273 small cell lung,> 100 µM
same,GI50,RPMI-8226 leukemia,22.4 µM
same,TGI,RPMI-8226 leukemia,> 31.6 µM
same,GI50,A549 NSCLC,43.1 µM
same,TGI,A549 NSCLC,> 100 µM
same,GI50,HT29 colon,> 100 µM
same,TGI,HT29 colon,> 100 µM
same,GI50,SK-MEL-2 melanoma,22 µM
same,TGI,SK-MEL-2 melanoma,> 62.7 µM
same,GI50,SNB-19 CNS,23.3 µM
same,TGI,SNB-19 CNS,> 67.3 µM
same,GI50,CCRF-CEM leukemia,35.3 µM
same,TGI,CCRF-CEM leukemia,> 100 µM
same,GI50,SR leukemia,51.1 µM
same,TGI,SR leukemia,> 100 µM
same,GI50,M14 melanoma,40.9 µM
same,TGI,M14 melanoma,> 85.8 µM
same,GI50,ACHN renal,25.9 µM
same,TGI,ACHN renal,> 60.7 µM
same,GI50,OVCAR-5 ovarian,> 100 µM
same,TGI,OVCAR-5 ovarian,> 100 µM
same,GI50,KM20L2 colon,> 100 µM
same,TGI,KM20L2 colon,> 100 µM
same,GI50,HCT-15 colon,36.8 µM
same,TGI,HCT-15 colon,> 100 µM
same,GI50,NCI-H460 lung,19.6 µM
same,TGI,NCI-H460 lung,43.7 µM
same,GI50,KM12 colon,57.1 µM
same,TGI,KM12 colon,> 100 µM
same,GI50,MOLT-4 leukemia,53.7 µM
same,TGI,MOLT-4 leukemia,> 100 µM
same,GI50,UO-31 renal,29.8 µM
same,TGI,UO-31 renal,> 60.6 µM
same,GI50,COLO 205 colon,> 51.8 µM
same,TGI,COLO 205 colon,> 85.1 µM
same,GI50,K-562 leukemia,> 79.5 µM
same,TGI,K-562 leukemia,> 100 µM
same,GI50,RXF 393 renal,24.1 µM
same,TGI,RXF 393 renal,48.5 µM
same,GI50,SF-539 CNS,16.7 µM
same,TGI,SF-539 CNS,37.6 µM
